Literature values in patent US12569513B1, “Stable, highly pure L-cysteine compositions for injection and methods of use” (priority 2019, dated 2026).
Converted amounts (≈) assume the structure as drawn.

solubility: 50 mg/mL (≈ 413 mM)
SMILES: N[C@@H](CS)C(=O)O [L-Cysteine, 2-Amino-3-sulfhydrylpropanoic acid]
